# Assay results published in ChEMBL document CHEMBL5154884, “Discovery of a Novel Src Homology-2 Domain Containing Protein Tyrosine Phosphatase-2 (SHP2) and Cyclin-Dependent Kinase 4 (CDK4) Dual Inhibitor for the Treatment of Triple-Negative Breast Cancer” (J Med Chem, 2022).
# pIC50: −log10 of the molar value. The source made the active and inactive calls. The rule behind the calls is not given here.
# Assays:
# [1] = Inhibition of recombinant N-terminal GST/His6-fusion tagged human CDK1/Cyclin B expressed in Sf9 insect cells incubated for 20 mins followed by [33P]gamma-ATP addition and measured after 2 hrs by radiometric HotSpot Kinase assay
# EMT6 [2] = test: Antitumor activity against mouse EMT6 cells implanted in BALB/c mouse syngenic model assessed as downregulation of Ki67 level in tumor at 20 to 40 mg/kg, po qd measured after 18 days by immunohistochemical analysis; assay type: functional, organism-based; details: dose 20-40 mg/kg, time 18.0 day
# EMT6 [3] = test: Antitumor activity against mouse EMT6 cells implanted in BALB/c mouse syngenic model assessed as downregulation of pERK level in tumor at 20 to 40 mg/kg, po qd measured after 18 days by immunohistochemical analysis; assay type: functional, organism-based; details: dose 20-40 mg/kg, time 18.0 day
# [4] = target: Tyrosine-protein phosphatase non-receptor type 6 (Homo sapiens, UniProt P29350); test: Inhibition of SHP1 (unknown origin) using DiFMUP as substrate preincubated for 20 mins followed by substrate addition and measured for 2 hrs by fluorescence based analysis
# Sequence of Tyrosine-protein phosphatase non-receptor type 6 (P29350 whole entry): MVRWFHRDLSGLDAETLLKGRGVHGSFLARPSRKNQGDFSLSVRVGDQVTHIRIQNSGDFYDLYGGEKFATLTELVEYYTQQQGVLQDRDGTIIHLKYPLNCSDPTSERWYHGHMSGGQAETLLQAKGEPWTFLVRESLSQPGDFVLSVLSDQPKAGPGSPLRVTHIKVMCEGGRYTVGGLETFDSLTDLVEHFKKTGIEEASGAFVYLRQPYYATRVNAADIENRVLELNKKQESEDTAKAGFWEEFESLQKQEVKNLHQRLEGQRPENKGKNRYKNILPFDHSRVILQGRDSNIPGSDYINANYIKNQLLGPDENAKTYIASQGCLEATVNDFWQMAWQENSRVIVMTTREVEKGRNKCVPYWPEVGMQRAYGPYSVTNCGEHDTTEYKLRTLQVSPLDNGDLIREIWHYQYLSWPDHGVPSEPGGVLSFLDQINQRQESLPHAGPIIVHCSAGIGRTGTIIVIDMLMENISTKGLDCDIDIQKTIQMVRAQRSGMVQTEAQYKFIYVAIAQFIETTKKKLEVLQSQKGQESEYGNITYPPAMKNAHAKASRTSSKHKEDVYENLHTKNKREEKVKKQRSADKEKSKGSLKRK
# MDA-MB-231 [5] = test: Antiproliferative activity against human MDA-MB-231 cells assessed as inhibition of cell growth incubated for 48 hrs by MTT assay; assay type: functional, cell-based; details: Homo sapiens, MDA-MB-231, 48 h
# CDK2/Cyclin-E2 = CDK2/Cyclin-E2 (Homo sapiens, UniProt O96020+P24941); test: Inhibition of recombinant N-terminal GST/His6-fusion tagged human CDK2/Cyclin E2 expressed in Sf9 insect cells incubated for 20 mins followed by [33P]gamma-ATP addition and measured after 2 hrs by radiometric HotSpot Kinase assay
# [6] = target: Cyclin-dependent kinase 5/CDK5 activator 1 (Homo sapiens, UniProt Q00535); test: Inhibition of recombinant full length N-terminal GST/His6-fusion tagged human CDK5/P25 expressed in Sf9 insect cells incubated for 20 mins followed by [33P]gamma-ATP addition and measured after 2 hrs by radiometric HotSpot Kinase assay
# Sequence of Cyclin-dependent kinase 5/CDK5 activator 1 (Q00535 whole entry, the tested form may be a part): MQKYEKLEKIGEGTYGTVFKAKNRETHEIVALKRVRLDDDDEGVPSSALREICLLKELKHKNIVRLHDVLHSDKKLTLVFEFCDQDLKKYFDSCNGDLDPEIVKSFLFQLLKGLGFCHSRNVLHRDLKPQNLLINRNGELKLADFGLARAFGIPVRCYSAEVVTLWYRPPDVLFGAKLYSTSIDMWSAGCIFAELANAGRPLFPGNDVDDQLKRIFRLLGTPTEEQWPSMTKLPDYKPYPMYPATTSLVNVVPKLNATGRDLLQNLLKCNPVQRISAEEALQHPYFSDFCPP
# Sequence of Cyclin-dependent kinase 5/CDK5 activator 1 (Q15078 whole entry, further chain, the tested form may be a part): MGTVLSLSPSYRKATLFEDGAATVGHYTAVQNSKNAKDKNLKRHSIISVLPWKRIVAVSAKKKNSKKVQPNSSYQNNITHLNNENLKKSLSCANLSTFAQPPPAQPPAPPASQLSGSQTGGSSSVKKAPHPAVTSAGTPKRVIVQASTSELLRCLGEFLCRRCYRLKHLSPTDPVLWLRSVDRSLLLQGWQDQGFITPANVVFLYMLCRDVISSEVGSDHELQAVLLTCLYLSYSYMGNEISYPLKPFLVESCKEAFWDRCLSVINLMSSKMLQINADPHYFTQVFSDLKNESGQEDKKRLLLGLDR
# [7] = Terminal half life in ICR mouse at 1 mg/kg, iv measured upto 24 hrs by LC-MS/MS analysis; assay type: ADME, organism-based; details: in vivo, read-out: beta t1/2 (converted)
# MDA-MB-231 [8] = test: Induction of cell cycle arrest in human MDA-MB-231 cells assessed as accumulation of cells in G0/G1 phase at 3 uM incubated for 48 hrs by RNase/propidium iodide staining based flow cytometry analysis (reference value: 26.2%); assay type: functional
# [9] = target: T1, Tyrosine-protein phosphatase non-receptor type 11 (Homo sapiens, UniProt Q06124); test: Inhibition of SHP2 PTP domain (unknown origin) using DiFMUP as substrate preincubated for 20 mins followed by substrate addition and measured for 2 hrs by fluorescence based analysis
# T1 sequence (Q06124 whole entry): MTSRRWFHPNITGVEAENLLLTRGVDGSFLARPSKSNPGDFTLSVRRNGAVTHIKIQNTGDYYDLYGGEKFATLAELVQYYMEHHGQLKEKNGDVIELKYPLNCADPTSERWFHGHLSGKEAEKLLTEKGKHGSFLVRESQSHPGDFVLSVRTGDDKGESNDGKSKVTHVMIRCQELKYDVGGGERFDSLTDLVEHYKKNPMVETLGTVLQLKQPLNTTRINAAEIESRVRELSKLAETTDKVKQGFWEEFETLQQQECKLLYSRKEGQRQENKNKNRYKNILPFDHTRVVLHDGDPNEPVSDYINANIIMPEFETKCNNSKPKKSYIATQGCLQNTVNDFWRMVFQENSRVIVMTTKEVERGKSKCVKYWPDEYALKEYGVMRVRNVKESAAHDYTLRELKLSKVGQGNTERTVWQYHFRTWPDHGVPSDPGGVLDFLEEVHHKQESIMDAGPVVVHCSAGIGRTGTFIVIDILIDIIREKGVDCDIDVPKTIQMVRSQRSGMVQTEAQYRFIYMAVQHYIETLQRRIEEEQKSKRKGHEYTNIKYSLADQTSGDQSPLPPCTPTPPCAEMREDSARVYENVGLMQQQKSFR
# [10] = AUC in ICR mouse at 1 mg/kg, iv measured upto 24 hrs by LC-MS/MS analysis; assay type: ADME, organism-based; parameters: time < 24 hrs, dose 1 mg/kg, route iv; details: in vivo
# MDA-MB-231 [11] = test: Induction of apoptosis in human MDA-MB-231 cells assessed as viable cells at 3 uM measured after 48 hrs by Annexin V-FITC/PI staining based flow cytometric analysis (reference value: 98.04%); assay type: functional; details: read-out: Activity
# EMT6 [12] = test: Antitumor activity against mouse EMT6 cells implanted in BALB/c mouse syngenic model assessed as increase in infiltration of CD8 positive T cells into tumors at 20 to 40 mg/kg, po qd measured after 18 days by immunohistochemical analysis; assay type: functional, organism-based; details: dose 20-40 mg/kg, time 18.0 day
# CDK3/Cyclin E = CDK3/Cyclin E (Homo sapiens, UniProt Q00526); test: Inhibition of recombinant N-terminal GST/His6-fusion tagged human CDK3/Cyclin E expressed in Sf9 insect cells incubated for 20 mins followed by [33P]gamma-ATP addition and measured after 2 hrs by radiometric HotSpot Kinase assay
# Sequence of CDK3/Cyclin E (P24864 whole entry, the tested form may be a part): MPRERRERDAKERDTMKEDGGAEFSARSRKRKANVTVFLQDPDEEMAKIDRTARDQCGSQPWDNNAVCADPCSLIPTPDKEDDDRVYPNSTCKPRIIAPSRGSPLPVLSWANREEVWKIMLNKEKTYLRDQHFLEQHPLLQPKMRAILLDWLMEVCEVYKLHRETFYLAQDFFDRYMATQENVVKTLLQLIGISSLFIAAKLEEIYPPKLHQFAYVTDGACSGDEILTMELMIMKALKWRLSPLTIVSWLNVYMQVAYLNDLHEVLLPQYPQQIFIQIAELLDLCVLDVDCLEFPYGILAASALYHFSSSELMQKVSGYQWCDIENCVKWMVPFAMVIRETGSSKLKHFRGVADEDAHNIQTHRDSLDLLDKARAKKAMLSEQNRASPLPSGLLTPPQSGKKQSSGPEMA
# Sequence of CDK3/Cyclin E (Q00526 whole entry, the tested form may be a part): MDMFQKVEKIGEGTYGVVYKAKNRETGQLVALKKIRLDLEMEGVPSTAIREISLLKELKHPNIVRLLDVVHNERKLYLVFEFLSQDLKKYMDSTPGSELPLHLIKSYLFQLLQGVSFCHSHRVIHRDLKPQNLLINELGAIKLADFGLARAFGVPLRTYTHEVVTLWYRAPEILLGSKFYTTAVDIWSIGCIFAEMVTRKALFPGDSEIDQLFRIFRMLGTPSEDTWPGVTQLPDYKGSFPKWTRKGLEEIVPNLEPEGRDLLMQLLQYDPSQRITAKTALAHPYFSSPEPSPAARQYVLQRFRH
# [13] = Cmax in ICR mouse at 1 mg/kg, iv measured upto 24 hrs by LC-MS/MS analysis; assay type: ADME, organism-based; parameters: time < 24 hrs, dose 1 mg/kg, route iv; details: in vivo
# EMT6 [14] = test: Antitumor activity against mouse EMT6 cells implanted in BALB/c mouse syngenic model assessed as tumor growth inhibition at 40 mg/kg, po qd and measured after 18 days relative to control; assay type: functional; details: EMT6, 432 h, time 18 day, read-out: TGI
# EMT6 [15] = test: Antitumor activity against mouse EMT6 cells implanted in BALB/c mouse syngenic model assessed as downregulation of p-retinoblastoma level in tumor at 20 mg/kg, po bid measured after 18 days by immunohistochemical analysis; assay type: functional, organism-based; details: time 18.0 day
# CDK6/cyclin D3 = CDK6/cyclin D3 (Homo sapiens, UniProt Q00534); test: Inhibition of recombinant N-terminal GST/His6-fusion tagged human CDK6/Cyclin D3 expressed in Sf9 insect cells incubated for 20 mins followed by [33P]gamma-ATP addition and measured after 2 hrs by radiometric HotSpot Kinase assay
# Sequence of CDK6/cyclin D3 (P30281 whole entry, the tested form may be a part): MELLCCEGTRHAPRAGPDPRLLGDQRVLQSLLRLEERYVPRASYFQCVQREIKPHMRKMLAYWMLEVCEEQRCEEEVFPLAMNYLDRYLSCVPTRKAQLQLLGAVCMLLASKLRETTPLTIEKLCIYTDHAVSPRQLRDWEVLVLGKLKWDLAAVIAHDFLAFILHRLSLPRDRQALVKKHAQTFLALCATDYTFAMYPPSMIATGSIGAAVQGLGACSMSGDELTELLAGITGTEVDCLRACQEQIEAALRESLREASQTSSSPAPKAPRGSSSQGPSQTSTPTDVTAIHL
# Sequence of CDK6/cyclin D3 (Q00534 whole entry, the tested form may be a part): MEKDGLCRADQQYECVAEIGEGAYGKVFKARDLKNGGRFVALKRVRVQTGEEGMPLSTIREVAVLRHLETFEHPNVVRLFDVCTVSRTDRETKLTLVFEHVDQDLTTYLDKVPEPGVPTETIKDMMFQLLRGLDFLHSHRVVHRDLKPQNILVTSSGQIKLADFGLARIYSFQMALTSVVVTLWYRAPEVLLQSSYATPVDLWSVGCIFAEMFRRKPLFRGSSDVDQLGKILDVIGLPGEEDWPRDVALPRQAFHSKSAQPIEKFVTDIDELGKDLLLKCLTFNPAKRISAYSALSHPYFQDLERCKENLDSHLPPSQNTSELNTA
# [16] = Volume of distribution in ICR mouse at 1 mg/kg, iv measured upto 24 hrs by LC-MS/MS analysis; assay type: ADME, organism-based; details: in vivo
# [17] = AUC in ICR mouse at 10 mg/kg, po measured upto 24 hrs by LC-MS/MS analysis; assay type: ADME, organism-based; parameters: time < 24 hrs, dose 10 mg/kg, route po; details: in vivo
# EMT6 [18] = test: Antitumor activity against mouse EMT6 cells implanted in BALB/c mouse syngenic model assessed as downregulation of p-retinoblastoma level in tumor at 20 to 40 mg/kg, po qd measured after 18 days by immunohistochemical analysis; assay type: functional, organism-based; details: dose 20-40 mg/kg, time 18.0 day
# MDA-MB-231 [19] = test: Induction of apoptosis in human MDA-MB-231 cells assessed as necrotic cells at 1 uM measured after 48 hrs by Annexin V-FITC/PI staining based flow cytometric analysis (reference value: 0.58%); assay type: functional
# CDK4/Cyclin D3 = CDK4/Cyclin D3 (Homo sapiens, UniProt P11802); test: Inhibition of recombinant N-terminal GST/His6-fusion tagged human CDK4/Cyclin D3 expressed in Sf9 insect cells using 5-FAM-IPTSPITTTYFFFKKK as substrate preincubated for 10 mins followed by substrate addition and incubated for 3 hrs in presence of ATP by caliper mobility shift analysis
# Sequence of CDK4/Cyclin D3 (P11802 whole entry, the tested form may be a part): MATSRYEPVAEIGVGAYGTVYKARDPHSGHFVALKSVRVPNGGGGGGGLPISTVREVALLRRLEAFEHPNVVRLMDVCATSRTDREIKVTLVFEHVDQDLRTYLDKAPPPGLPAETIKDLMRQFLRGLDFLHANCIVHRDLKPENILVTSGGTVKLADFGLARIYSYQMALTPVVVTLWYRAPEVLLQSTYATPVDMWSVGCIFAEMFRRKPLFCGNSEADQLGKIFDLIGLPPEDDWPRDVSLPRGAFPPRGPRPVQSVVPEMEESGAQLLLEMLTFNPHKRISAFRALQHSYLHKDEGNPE
# Sequence of CDK4/Cyclin D3 (P30281 whole entry, further chain, the tested form may be a part): as the sequence (P30281 whole entry, the tested form may be a part) above
# EMT6 [20] = test: Antiproliferative activity against mouse EMT6 cells assessed as inhibition of cell growth incubated for 48 hrs by MTT assay; assay type: functional, cell-based; details: Mus musculus, EMT6, 48 h
smiles,measurement,setting,value
Cc1nc2c(F)cc(-c3nc(Nc4nccc(Sc5cnc(N6CCC7(CC6)CO[C@@H](C)[C@H]7N)cn5)c4Cl)ncc3F)cc2n1C(C)C,pIC50,[1],6.68
same,Activity,EMT6 [2],Active
same,Activity,EMT6 [3],Active
same,pIC50,[4],< 4.70
same,pIC50,MDA-MB-231 [5],5.25
same,pIC50,CDK2/Cyclin-E2,6.33
same,pIC50,[6],6.27
same,half-life,[7],127 min
same,Activity,MDA-MB-231 [8],58.9%
same,pIC50,[9],< 4.70
same,AUC at 24 h,[10],1200 ng·h/mL
same,viability at 3 µM,MDA-MB-231 [11],82%
same,Activity,EMT6 [12],Active
same,pIC50,CDK3/Cyclin E,< 6.00
same,Cmax,[13],383 ng/mL
same,inhibition in vivo at 40 mg/kg,EMT6 [14],80%
same,Activity,EMT6 [15],Active
same,pIC50,CDK6/cyclin D3,6.20
same,Vd,[16],2.53 L/kg
same,AUC at 24 h,[17],5510 ng·h/mL
same,Activity,EMT6 [18],Active
same,Activity,MDA-MB-231 [19],1.16%
same,pIC50,CDK4/Cyclin D3,7.74
same,pIC50,EMT6 [20],6.19
